22 molecules from patent US20160052898A1, “NOVEL COMPOUNDS” (BAYER PHARMA AKTIENGESELLSCHAFT, priority 2013, published 2016) can be followed below.

Experiment [1] deals with HCT116 FOP control reporter cell line. Kind of experiment: HCT116 FOP control vector reporter assay (non-functional TCF elements). The class given is cell-based. The following applies: Homo sapiens, HCT-116, 36 h, HCT116 FOP control reporter cells, luciferase expression, 36 hours incubation, 50 μM to 15 nM; read-out: HCT116 FOPFlash IC50. The procedure, abridged: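 Stable HCT116 line carrying the non-functional FOP luciferase construct, 10000 cells/well plated 24 hrs before. Compounds 50 μM to 15 nM (3.16-fold steps) in CAFTY buffer pH 7.4 with 2 mM Ca2+, 36 hours at 37° C; luciferase luminescence read.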
For orientation: In a reporter assay the amount or activity of a reporter protein is the signal.

Experiment [2] has as its system constitutive active colorectal cancer cell (CRC) Wnt pathway. Kind of experiment: HCT116 Super TopFlash cellular reporter assay (constitutive active Wnt pathway). The class given is cell-based. The following applies: Homo sapiens, HCT-116, 36 h, HCT116 TOP reporter cells, luciferase expression, 36 hours incubation, 50 μM to 15 nM. The procedure, abridged: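 Luciferase luminescence served as the Wnt read-out after 36 h of compound treatment at 37 °C. Compound came from a pre-dilution series (50 μM down to 15 nM, 3.16-fold steps) in CAFTY buffer. Cells were stable HCT116 TOP reporter cells, with matched FOP-vector control cells tested in parallel, seeded a day earlier.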

Structures can show the parent of a compound that is named as a salt.

For the molecule `COc1ccc(NC(=O)c2ccc(-c3ccccc3)cc2)cc1NC(=O)C1(N2CCN(C)CC2)CC1` [Example 163, N-[4-methoxy-3-({[1-(4-methylpiperazin-1-yl)cyclopropyl]carbonyl}amino)phenyl]biphenyl-4-carboxamide hydrochloride (1:1)], the IC50 in experiment [1] came to 12600 nM; in experiment [2], 127 nM.
As for `COCCOCc1ccc(C(=O)Nc2ccc(-c3ccccc3)cc2)cc1NC(=O)C(C)N1CCOCC1` (centres unmarked) [Example 164, N-(biphenyl-4-yl)-4-[(2-methoxyethoxy)methyl]-3-{[2-(morpholin-4-yl)propanoyl]amino} benzamide], the IC50 is at least 50000 nM in experiment [1] and 134 nM in experiment [2].
For `COCc1ccc(C(=O)Nc2ccc(-c3ccccc3)cc2)cc1NC(=O)CN1CCOCC1` [Example 165, N-(biphenyl-4-yl)-4-(methoxymethyl)-3-[(morpholin-4-ylacetyl)amino]benzamide], in that order: at least 50000 nM and 135 nM.
Taken in the same sequence, the figures for `COCc1ccc(C(=O)Nc2ccc(-c3ccccc3)cc2)cc1NC(=O)C(C)N1CC2CCC(C1)O2` (centres unmarked) [Example 170, N-(biphenyl-4-yl)-4-(methoxymethyl)-3-{(2-(8-oxa-3-azabicyclo[3.2.1]oct-3-yl)propanoyl)amino} benzamide] were 7400 nM and 178 nM.
Taken in the same sequence, the figures for `O=C(Nc1ccc(F)c(NC(=O)C2(N3CCOCC3)CC2)c1)c1ccc(-c2ccccc2)cc1` [Example 171, N-[4-fluoro-3-({[1-(morpholin-4-yl)cyclopropyl]carbonyl}amino)phenyl]biphenyl-4-carboxamide] were at least 50000 nM and 200 nM.
Turning to `COC1CCN(CC(=O)Nc2cc(C(=O)Nc3ccc(-c4ccccc4)cc3)ccc2OC2CC2)C1` (centres unmarked) [Example 174, N-(biphenyl-4-yl)-4-(cyclopropyloxy)-3-{[(3-methoxypyrrolidin-1-yl)acetyl)amino}benzamide], the values for the IC50 in experiment [1] and in experiment [2] were at least 50000 nM and 215 nM, respectively.
For `COCc1ccc(C(=O)Nc2ccc(-c3ccccc3)cc2)cc1NC(=O)CN1C[C@@H]2C[C@H]1CO2` [Example 175, N-(biphenyl-4-yl)-4-(methoxymethyl)-3-{[(1S,4S)-2-oxa-5-azabicyclo[2.2.1]hept-5-ylacetyl)amino}benzamide], in that order: 7300 nM and 218 nM.
With `COCCCOCc1ccc(C(=O)Nc2ccc(-c3ccccc3)cc2)cc1NC(=O)CN1CC2CCC(C1)O2` [Example 176, N-(biphenyl-4-yl)-4-[(3-methoxypropoxy)methyl]-3-[(8-oxa-3-azabicyclo[3.2.1]oct-3-ylacetyl)amino]benzamide], the figures for the IC50 in experiment [1] and in experiment [2] were 3420 nM and 260 nM, respectively.
Taken in the same sequence, the figures for `CC(C(=O)Nc1cc(NC(=O)c2ccc(-c3ccccc3)cc2)ccc1C(F)(F)F)N1CC2CCC(C1)O2` (centres unmarked) [Example 178, N-[3-{[2-(8-oxa-3-azabicyclo[3.2.1]oct-3-yl)propanoyl]amino}-4-(trifluoromethyl)phenyl) biphenyl-4-carboxamide] were 47500 nM and 285 nM.
Taken in the same sequence, the figures for `O=C(CN1C[C@H]2C[C@@H]1CO2)Nc1cc(C(=O)Nc2ccc(-c3ccccc3)cc2)ccc1OC1CC1` [Example 181, N-(biphenyl-4-yl)-4-(cyclopropyloxy)-3-{[(1R,4R)-2-oxa-5-azabicyclo[2.2.1]hept-5-ylacetyl]amino}benzamide] were at least 50000 nM and 302 nM.
For `O=C(CN1CCOCC1)Nc1cc(NC(=O)c2ccc(-c3ccccc3)cc2)ccc1C(F)(F)F` [Example 183, N-{3-[(morpholin-4-ylacetyl)amino]-4-(trifluoromethyl)phenyl} biphenyl-4-carboxamide], in that order: at least 50000 nM and 344 nM.
As for `O=C(CN1CCOCC1)Nc1cc(C(=O)Nc2ccc(-c3ccccc3)cc2)ccc1OC(F)F` [Example 184, N-(biphenyl-4-yl)-4-(difluoromethoxy)-3-[(morpholin-4-ylacetyl)amino]benzamide], the IC50 is at least 50000 nM in experiment [1] and 346 nM in experiment [2].
For the molecule `COc1ccc(NC(=O)c2ccc(-c3ccccc3)cc2)cc1NC(=O)C1(N2CCN(C3CC3)CC2)CC1` [Example 185, N-[3-({[l-(4-cyclopropylpiperazin-1-yl)cyclopropyl]carbonyl}amino}-4-melhoxyphenyl)biphenyl-4-carboxamide], the IC50 in experiment [1] is at least 50000 nM; in experiment [2] it was 374 nM.
Taken in the same sequence, the figures for `COC1CN(CC(=O)Nc2cc(C(=O)Nc3ccc(-c4ccccc4)cc3)ccc2OC2CC2)C1` [Example 186, N-(biphenyl-4-yl)-4-(cyclopropyloxy)-3-{[(3-methoxyazetidin-1-yl)acetyl]amino}benzamide] were at least 50000 nM and 385 nM.
As for `COCc1ccc(C(=O)Nc2ccc(-c3ccccc3)cc2)cc1NC(=O)Cn1cccn1` [Example 187, N-(biphenyl-4-yl)-4-(methoxymethyl)-3-[(1H-pyrazol-1-ylacetyl)amino]benzamide], the IC50 in experiment [1] is at least 50000 nM; in experiment [2], 423 nM.
With `CN(C)C1(C(=O)Nc2cc(NC(=O)c3ccc(-c4ccccc4)cc3)ccc2OC(F)(F)F)CC1` [Example 188, N-[3-({[1-(dimethylamino)cyclopropyl]carbonyl}amino)-4-(trifluoromethoxy)phenyl] biphenyl-4-carboxamide], the IC50 is 33000 nM in experiment [1] and 456 nM in experiment [2].
As to `COc1ccc(NC(=O)c2ccc(-c3ccccc3)cc2)cc1NC(=O)C1(N(C)C)CC1` [Example 189, N-[3-({[1-(dimethylamino)cyclopropyl]carbonyl}amino)-4-methoxyphenyl]biphenyl-4-carboxamide], the IC50 was at least 50000 nM in experiment [1] and 479 nM in experiment [2].
Regarding `O=C(CN1C[C@H]2C[C@@H]1CO2)Nc1cc(C(=O)Nc2ccc(-c3ccccc3)cc2)ccc1C(F)(F)F` [Example 190, N-(biphenyl-4-yl)-3-{[(1R,4R)-2-oxa-5-azabicyclo[2.2.1]hept-5-ylacetyl]amino}-4-(trifluoromethyl)benzamide], the IC50 in experiment [1] was at least 50000 nM; in experiment [2], 568 nM.
For `O=C(CN1CCOCC1)Nc1cc(C(=O)Nc2ccc(-c3ccccc3)cc2)ccc1C(=O)NCCN1CCCC1` [Example 191, N4-(biphenyl-4-yl)-2-[(morpholin-4-ylacetyl)amino]-N1-[2-(pyrrolidin-1-yl)ethyl]terephthalamide], in that order: 12000 nM and 715 nM.
For `O=C(CN1C[C@@H]2C[C@H]1CO2)Nc1cc(C(=O)Nc2ccc(-c3ccccc3)cc2)ccc1OC1CC1` [Example 192, N-(biphenyl-4-yl)-4-(cyclopropyloxy)-3-{[(1S,4S)-2-oxa-S-azabicyclo[2.2.1]hept-5-ylacetyl]amino}benzamide], in that order: at least 50000 nM and 785 nM.
Taken in the same sequence, the figures for `COCCOCc1ccc(C(=O)Nc2ccc(-c3ccccc3)cc2)cc1NC(=O)CN1CC2CCC(C1)O2` [Example 193, N-(biphenyl-4-yl)-4-[(2-methoxyethoxy)methyl]-3-[(8-oxa-3-azabicyclo[3.2.1]oct-3-ylacetyl)amino]benzamide] were 17000 nM and 810 nM.
For the molecule `Cc1noc(-c2ccc(C(=O)Nc3ccc(-c4ccccc4)cc3)cc2NC(=O)CN2CCOCC2)n1` [Example 194, N-(biphenyl-4-yl)-4-(3-methyl-1,2,4-oxadiazol-5-yl)-3-[(morpholin-4-ylacetyl)amino]benzamide], the IC50 in experiment [1] is at least 50000 nM; in experiment [2], 864 nM.

In general, IC50 refers to the concentration that gives 50% inhibition.
